According to paper PMC9503133, “In Vitro Release, Mucosal Permeation and Deposition of Cannabidiol from Liquisolid Systems: The Influence of Liquid Vehicles” (Pharmaceutics, 2022):
Where “and” joins values, the source holds several entries; their conditions need not be identical. Identical values can stand only once. Like-named read-outs stand apart in the source and are kept apart here. Marks after values point to notes of the source that are not given here.

Legend:
[1] = cited from earlier work
[2] = set-up: method as in PMID 34774694, PMID 32882367; settings: ref [3],[4]; cited from earlier work
[3] = CBD solubility in liquid vehicles (excess CBD, shaking 24 h, HPLC); type: physicochemical
Method: The solubility of CBD in the investigated liquids was examined by adding the excess mass of CBD into 1 g of each test liquid in a test tube. The mixture was sonicated (1 h) using an ultrasonicator (Model LUC-405, Daihan Labtech Co., Ltd., Namyangju-si, Korea) and agitated constantly (37 ± 0.5 °C, 24 h) using a shaking water bath (Model LSB-030S, Daihan Labtech Co., Ltd., Namyangju-si, Korea), and the supernatant was filtered through a 0.45 μm syringe filter. The obtained filtrate was weighed, diluted and quantified by HPLC assay. The CBD solubility in the terms of the mg of CBD per g of liquid was calculated.
The amount of CBD was assessed using a modified HPLC method. An Agilent series 1260 combined with an Agilent ZORBAX Eclipse Plus column (C18, 100 × 4.6 mm, 3.5 μm) (Agilent Technologies, Inc., Santa Clara, CA, USA.) was used. The chromatographic separation was attained in 10 min using an isocratic protocol with a mixture of water:acetonitrile (30:70 v/v) comprising 0.1% formic acid set at a 1.5 mL/min flow rate. The injection volume was 20 µL. The column temperature was set at 45 °C, while the UV detector was set to 220 nm.

C=C(C)[C@@H]1CCC(C)=C[C@H]1c1c(O)cc(CCCCC)cc1O [CBD, Cannabidiol]
solubility of CBD in 50% EtOH ([1]; 50% EtOH receiver medium, ref Casirahi et al. [44]): 2200 ± 100 µg/mL
water solubility ([1]; ref [3],[4]): 5 ppm
calculated log n-octanol–water partition coefficient (Kow) [2]: 8 and ~ 8
CBD Solubility ([3]; in CM, 37 ± 0.5 °C): 386.77 ± 48.85 ^b mg/g
CBD Solubility ([3]; in DEGEE, 37 ± 0.5 °C): 579.46 ± 11.79 ^a mg/g
CBD Solubility ([3]; in EtOH, 37 ± 0.5 °C): >1000 mg/g
CBD Solubility ([3]; in OM, 37 ± 0.5 °C): 540.31 ± 4.59 ^a mg/g
CBD Solubility ([3]; in P20, 37 ± 0.5 °C): 261.73 ± 39.33 ^c mg/g
CBD Solubility ([3]; in PEG, 37 ± 0.5 °C): 342.18 ± 49.90 ^b mg/g
CBD Solubility ([3]; in PG, 37 ± 0.5 °C): 521.04 ± 55.42 ^a mg/g
CBD Solubility ([3]; in glycerin, 37 ± 0.5 °C): 0.09 ± 0.03 ^d mg/g
solubility at 24 h ([3]; simulated saliva fluid (SSF), simulated saliva fluid pH 6.8, read-out: solubility of CBD in pH 6.8 SSF): < 5 µg/mL
solubility at 24 h ([3]; water, converted with the specific gravity of water, read-out: CBD solubility in water): < 5 µg/mL
